{"source": "patent US8034800B2", "about": "“Antiviral macrocycle derivatives and metal complexes, incorporating bridged macrocycles” (University of Hull, priority 2004, dated 2011)", "key": {"CXCR4 chemokine receptor": {"target": "CXCR4 chemokine receptor (Homo sapiens, UniProt P61073)", "sequence (P61073 whole entry)": "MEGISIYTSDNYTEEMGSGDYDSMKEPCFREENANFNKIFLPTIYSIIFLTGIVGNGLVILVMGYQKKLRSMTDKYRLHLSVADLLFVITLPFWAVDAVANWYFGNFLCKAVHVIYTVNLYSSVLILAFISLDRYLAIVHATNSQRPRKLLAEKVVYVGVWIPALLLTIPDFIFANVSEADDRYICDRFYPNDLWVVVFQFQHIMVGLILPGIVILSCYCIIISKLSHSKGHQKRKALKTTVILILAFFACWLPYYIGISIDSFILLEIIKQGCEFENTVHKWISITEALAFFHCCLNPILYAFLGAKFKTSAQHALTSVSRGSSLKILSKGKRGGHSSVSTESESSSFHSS", "test": "Competition with CXCR4 binding antibodies, flow cytometry", "settings": "competition with anti-human CXCR4 mAb (44708.111), serial dilutions of compound added simultaneously with antibody", "procedure": "(§1) The antibodies used in this study were: unconjugated mouse anti-human CXCR4 mAbs clones 44708.111, 44716.111, PE-conjugated clone 44717.111 and 12G5 (R&D Systems Europe, Abingdon, UK). Cells were preincubated with 20 μM of the compound for 30 mins. Thereafter cells were incubated with each of the mAbs for a further 60 mins. In the case of the direct binding assay, serial dilutions of the compound were added simultaneously with the antibody (44708.111). Cells were then incubated with a secondary fluorescein isothiocyanate-conjugated anti-mouse antibody (IgG-FITC) (Serotec, UK) for 30 mins. Cell samples were analysed by a FACScan flow cytometer (BD Biosciences Europe. Erembodegem, Belgium). Data were acquired and analysed with CellQuest software (Becton Dickinson) on an Apple Macintosh computer. Relative percentage inhibitions were calculated from the mean fluorescent intensity of the whole cell population and relative inhibitory concentration (IC) values were obtained by non linear regression analyses using the Graphpad prism software."}, "HIV-1 (IIIB)": {"system": "HIV-1 (IIIB)", "test": "Anti-HIV activity in MT-4 cells, tetrazolium viability, HIV-1", "assay_type": "cell-based", "settings": "Human immunodeficiency virus 1, MT4, 120 h, 5 d, read-out: av IC50", "excerpt": "(§2) Anti-HIV activity and cytoxicity measurements in MT-4 cells were based on viability of cells that had been infected or not infected with HIV-1 (IIIB) and HIV-2 (ROD) ×4 strainsexposed to various concentrations of the test compound [following the procedure of S. Harada et al., Science, 1985, 229, 563]. The MT-4 cells were allowed to proliferate for 5 d after which time the number of viable cells was quantified by a tetrazolium-based colorimetric method [described by R. Pauwels et al., Journal of Virology Methods, 1988, 20, 309.]"}, "HIV-2 (ROD)": {"system": "HIV-2 (ROD)", "test": "Anti-HIV activity in MT-4 cells, tetrazolium viability, HIV-2", "assay_type": "cell-based", "settings": "Human immunodeficiency virus 2, MT4, 120 h, 5 d, read-out: av IC50", "excerpt": "as §2"}, "[1]": {"test": "Cytotoxicity in MT-4 cells, tetrazolium viability", "assay_type": "cell-based", "settings": "human, printed in HIV-1 line, read-out: av CC50", "excerpt": "as §2"}, "MT-4 cells": {"system": "MT-4 cells", "test": "Cytotoxicity in MT-4 cells, tetrazolium viability", "assay_type": "cell-based", "settings": "5 d, printed in HIV-2 line, read-out: av CC50", "excerpt": "as §2"}, "CXCR4 receptor": {"target": "T1, CXCR4 receptor (Homo sapiens, UniProt P61073)", "T1 construct": "endogenous in cells; host or cells: Jurkat cells", "T1 sequence (P61073 whole entry)": "as above", "test": "Binding of rhodamine-tagged macrocycles to jurkat cells, flow cytometry", "settings": "FIG. 1 / FIG. 2", "procedure": "Two monocyclam compounds were tagged with rhodamine and specific binding to the CXCR4 receptor was analysed by incubating with jurkat cells. Cell samples were analysed by flow cytometry as described in example 8, below.\nas §1"}}, "note": "pIC50: −log10 of the molar value."}
{"smiles": "c1cc(CN2CCCN3CCN(CCCNCC2)CC3)ccc1CN1CCCN2CCN(CCCNCC1)CC2", "note": "[Compound 16]", "values": [{"measurement": "pIC50", "setting": "CXCR4 chemokine receptor", "value": 4.77}, {"measurement": "IC90", "setting": "CXCR4 chemokine receptor", "value": "> 17", "unit": "µM"}, {"measurement": "pIC50", "setting": "HIV-1 (IIIB)", "value": 5.16}, {"measurement": "pIC50", "setting": "HIV-2 (ROD)", "value": 4.63}, {"measurement": "CC50 at 5 d", "setting": "[1]", "value": "> 225", "unit": "µM"}, {"measurement": "CC50", "setting": "MT-4 cells", "value": "> 225", "unit": "µM"}]}
{"smiles": "CCN(CC)c1ccc2c(-c3ccc(NC(=S)Nc4ccc(CN5CCCN6CCN(CCCNCC5)CC6)cc4)cc3C(=O)O)c3ccc(=[N+](CC)CC)cc-3oc2c1", "note": "[Rhodamine-Bridged Macrocycle Conjugate]", "values": [{"measurement": "binding to the CXCR4 chemokine receptor (flow cytometry histogram)", "setting": "CXCR4 receptor", "value": "binding of the chelator to the CXCR4 chemokine receptor"}]}
